In ChEMBL document CHEMBL1201862, “PubChem BioAssay data set” (2004):
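Dose response: 5 concentrations. Exposure: 48 h. Format: 96-well plates. Endpoint: linear interpolation; highest concentration if not reached. The concentration for 50% growth inhibition is given as GI50.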 The source made the active and inactive calls. Rule as the data show it: active = GI50 up to about 1.1 µM and inactive = higher.

Legend:
Test in all cases: growth of human tumour cells (NCI), 48 h
[1] = tested on: SK-OV-3
[2] = tested on: PC-3
[3] = tested on: DU-145
[4] = tested on: Malme-3M
[5] = tested on: SF-295
[6] = tested on: MDA-MB-231
[7] = tested on: U-251
[8] = tested on: TK-10
[9] = tested on: ACHN
[10] = tested on: EKVX
[11] = tested on: HOP-62
[12] = tested on: SNB-75
[13] = tested on: SK-MEL-5
[14] = tested on: SF-539
[15] = tested on: HT-29
[16] = tested on: BT-549
[17] = tested on: OVCAR-3
[18] = tested on: SK-MEL-2
[19] = tested on: M14
[20] = tested on: OVCAR-8
[21] = tested on: RXF 393
[22] = tested on: T47D
[23] = tested on: UACC-257
[24] = tested on: HCT-15
[25] = tested on: Hs-578T
[26] = tested on: OVCAR-4
[27] = tested on: MDA-MB-435
[28] = tested on: HCT-116
[29] = tested on: KM12
[30] = tested on: MCF7
[31] = tested on: HOP-92
[32] = tested on: 786-0
[33] = tested on: NCI-H522
[34] = tested on: LOX IMVI
[35] = tested on: MDA-N
[36] = tested on: NCI/ADR-RES
[37] = tested on: NCI-H460
[38] = tested on: NCI-H23
[39] = tested on: A498
[40] = tested on: COLO 205
[41] = tested on: CAKI-1
[42] = tested on: SF-268
[43] = tested on: A549
[44] = tested on: IGROV-1
[45] = tested on: SNB-19
[46] = tested on: SN12C
[47] = tested on: OVCAR-5
[48] = tested on: UO-31
[49] = tested on: NCI-H226
[50] = tested on: UACC-62
[51] = tested on: K562
[52] = tested on: MOLT-4
[53] = tested on: SK-MEL-28
[54] = tested on: SW-620
[55] = tested on: SR
[56] = tested on: HCC 2998
[57] = tested on: CCRF-CEM
[58] = tested on: RPMI-8226
[59] = tested on: HL-60

Measured: GI50

O=C(CC1(O)CCCCC1)OC1CCCC1
> 100 µM: [24]
inactive: [1] > 100 µM | [2] > 100 µM | [3] > 100 µM | [4] > 100 µM | [5] > 100 µM | [6] > 100 µM | [7] > 100 µM | [8] > 100 µM | [9] > 100 µM | [10] > 100 µM | [11] > 100 µM | [12] > 100 µM | [13] > 100 µM | [14] > 100 µM | [15] > 100 µM | [16] > 100 µM | [17] > 100 µM | [18] > 100 µM | [19] > 100 µM | [20] > 100 µM | [21] > 100 µM | [22] > 100 µM | [23] > 100 µM | [25] > 100 µM | [26] > 100 µM | [27] > 100 µM | [28] > 100 µM | [29] > 100 µM | [30] > 100 µM | [31] > 100 µM | [32] > 100 µM | [33] > 100 µM | [34] > 100 µM | [35] > 100 µM | [36] > 100 µM | [37] > 100 µM | [38] > 100 µM | [39] > 100 µM | [40] > 100 µM | [41] > 100 µM | [42] > 100 µM | [43] > 100 µM | [44] > 100 µM | [45] > 100 µM | [46] > 100 µM | [47] > 100 µM | [48] > 100 µM | [49] > 100 µM | [50] > 100 µM

CCOC(=O)NCC(=O)NCC(=O)NCC(N)=O
inactive: [51] > 100 µM | [1] > 100 µM | [52] > 100 µM | [2] > 100 µM | [3] > 100 µM | [4] > 100 µM | [5] > 100 µM | [53] > 100 µM | [6] > 100 µM | [7] > 100 µM | [8] > 100 µM | [9] > 100 µM | [10] > 100 µM | [54] > 100 µM | [11] > 100 µM | [13] > 100 µM | [15] > 100 µM | [16] > 100 µM | [17] > 100 µM | [18] > 100 µM | [55] > 100 µM | [19] > 100 µM | [56] > 100 µM | [20] > 100 µM | [21] > 100 µM | [22] > 100 µM | [23] > 100 µM | [25] > 100 µM | [26] > 100 µM | [27] > 100 µM | [28] > 100 µM | [29] > 100 µM | [30] > 100 µM | [32] > 100 µM | [33] > 100 µM | [35] > 100 µM | [57] > 100 µM | [36] > 100 µM | [38] > 100 µM | [58] > 100 µM | [40] > 100 µM | [41] > 100 µM | [42] > 100 µM | [43] > 100 µM | [44] > 100 µM | [45] > 100 µM | [47] > 100 µM | [48] > 100 µM | [49] > 100 µM | [50] > 100 µM
> 100 µM: [24]

Brc1ccccc1-c1ncc(-c2ccccc2)o1
inactive: [51] 21.1 µM | [1] 31.1 µM | [52] 14.2 µM | [2] 34.2 µM | [3] 32.1 µM | [4] 26.7 µM | [5] 33.9 µM | [53] 40.6 µM | [6] 38 µM | [7] 17 µM | [8] 47.2 µM | [9] 33.6 µM | [10] 6.7 µM | [54] 35.6 µM | [11] 27.8 µM | [12] 20.6 µM | [13] 18.1 µM | [14] 9.91 µM | [15] 29.9 µM | [16] 29.2 µM | [17] 22 µM | [18] 27.3 µM | [19] 29.6 µM | [56] 30 µM | [20] 37.1 µM | [21] 21.7 µM | [22] 9.29 µM | [23] 30.3 µM | [25] 10.3 µM | [26] 29.4 µM | [59] 30.5 µM | [27] 23.6 µM | [28] 34.8 µM | [29] 17.4 µM | [30] 3.47 µM | [31] 17.8 µM | [33] 22.6 µM | [34] 17.1 µM | [35] 31 µM | [57] 24.9 µM | [36] 30.8 µM | [37] 29.9 µM | [38] 29.4 µM | [39] 23 µM | [58] 15 µM | [40] 20.1 µM | [41] 32.1 µM | [42] 27.9 µM | [43] 44.7 µM | [44] 19.2 µM | [45] > 100 µM | [46] 55.2 µM | [47] 66.5 µM | [48] 43.7 µM | [50] 32.2 µM
7.36 µM: [24]

CC(=O)c1sc2c(c1OC(=O)c1ccco1)c(=O)n(-c1ccccc1)c(=S)n2-c1ccccc1
inactive: [51] 30.8 µM | [1] 16 µM | [52] 19.5 µM | [2] 16.9 µM | [3] 26.8 µM | [4] 5.08 µM | [5] 5.16 µM | [53] 23.8 µM | [6] 21.5 µM | [7] 23.3 µM | [8] 31.8 µM | [10] 26.4 µM | [54] 26.6 µM | [11] 25.1 µM | [12] 21.8 µM | [13] 5.81 µM | [14] 4.19 µM | [15] 6 µM | [16] 18.1 µM | [17] 32.8 µM | [18] 10.4 µM | [55] 29.4 µM | [19] 8.11 µM | [20] 30.3 µM | [21] 12.9 µM | [22] 13 µM | [23] 27.5 µM | [25] 2.28 µM | [26] 28.9 µM | [59] 19.8 µM | [27] 15 µM | [28] 18.2 µM | [29] 21.1 µM | [30] 22.6 µM | [31] 5.43 µM | [32] 26.7 µM | [33] 19.9 µM | [34] 14 µM | [35] 24.8 µM | [57] 3.93 µM | [36] 18.4 µM | [37] 31 µM | [38] 26.9 µM | [58] 4.89 µM | [40] 17.4 µM | [41] 32.5 µM | [42] 23.2 µM | [43] 38.2 µM | [44] 23.1 µM | [45] 28.2 µM | [46] 26 µM | [48] 20.3 µM | [49] 3.58 µM | [50] > 10 µM
18.7 µM: [24]

O=C(c1ccccc1)C1C(c2ccccc2)N1S(=O)(=O)c1ccccc1 (configuration not stated)
> 100 µM: [24]
inactive: [51] > 100 µM | [1] > 100 µM | [52] > 100 µM | [2] > 100 µM | [3] > 100 µM | [4] > 100 µM | [5] > 100 µM | [53] > 100 µM | [6] > 100 µM | [7] > 100 µM | [8] > 100 µM | [10] > 100 µM | [54] > 100 µM | [11] > 100 µM | [12] > 100 µM | [13] > 100 µM | [14] > 100 µM | [15] > 100 µM | [16] > 100 µM | [17] > 100 µM | [18] > 100 µM | [19] > 100 µM | [56] > 100 µM | [20] > 100 µM | [21] > 100 µM | [22] > 100 µM | [25] > 100 µM | [26] > 100 µM | [27] > 100 µM | [28] > 100 µM | [29] > 100 µM | [30] > 100 µM | [33] > 100 µM | [34] > 100 µM | [35] > 100 µM | [57] > 100 µM | [36] > 100 µM | [38] > 100 µM | [58] > 100 µM | [40] > 100 µM | [41] > 100 µM | [42] > 100 µM | [43] > 100 µM | [44] > 100 µM | [46] > 100 µM | [47] > 100 µM | [48] > 100 µM | [49] > 100 µM | [50] > 100 µM
